SMILES strings stand for the structures. Like-named read-outs stand apart in the source and are kept apart here.

Here are results for 23 compounds from US11198687B2, “Heteroaryl allosteric modulators of nicotinic acetylcholine receptors” (Merck Sharp & Dohme Corp., priority 2017, dated 2021).

This test addresses human α7 nAChR (Homo sapiens, UniProt P36544). Put plainly: Automated patch-clamp electrophysiology functional assay (Assay A). Type of test: cell-based. To be noted: IonFlux HT whole-cell population patch, HEK cell line stably expressing human RIC-3 and human α7, 40 μM acetylcholine. As to the method:
The α7 nAChR positive allosteric modulator (PAM) activity of the present compounds may be tested using assays known in the art. […] The assay was performed using the IonFlux HT in a whole-cell, population patch configuration. See Golden et al. Assay Drug Dev. Technol. (2011) 9:608-619. The compounds were assessed for their ability to modulate the function of the human α7 nAChR stably expressed in a HEK cell line both in the presence, and in the absence of the natural α7 agonist acetylcholine. By performing a series of such measurements at different concentrations, the effective concentration of the α7 nAChR PAMs (EC50) was determined. See Spencer et al. Assay Drug Dev. Technol. (2012) 10:313-324.
Direct activation of α7 (agonism), and potentiation of acetylcholine-evoked α7 currents was determined as follows:
Automated Patch-Clamp Electrophysiology Functional Assay (Assay A)
Automated patch-clamp electrophysiology was performed using the IonFlux HT (Fluxion Biosciences Inc., San Francisco, Calif.) in the whole-cell, population patch configuration. Test compounds were assessed for their ability to modulate the function of the α7 nicotinic acetylcholine receptor both in the presence, and in the absence of the natural α7 agonist acetylcholine. A HEK cell line stably expressing both human RIC-3 and human α7 (PrecisION hnAChR α7/RIC-3, Eurofins Pharma, St. Charles, Mo.) was cultured in 175 cm^2 triple-layer tissue culture flasks to no more than 90% confluency in DMEM/F-12 growth media supplemented with 10% heat-inactivated fetal bovine serum, 1% non-essential amino acids, 0.625 μg/mL Puromycin, and 400 μg/mL Geneticin. Immediately prior to assay, cells were detached by first aspirating growth media, rinsing with Dulbecco's phosphate buffered saline, and then adding 10 mL of Accutase (Innovative Cell Technologies, San Diego, Calif.) to the flask and then incubating at 37° C. for 5 minutes. Detached cells were then recovered by the addition of 40 mL of CHO-serum-free media supplemented with 25 mM HEPES, and rocked gently in a 50 mL conical tube for 20 minutes prior to patch-clamp assay. […] The cell suspension was added to the cell inlet wells on an IonFlux HT population patch plate which had previously been rinsed and primed with deionized H2O. Test compounds were serially diluted in DMSO and then resuspended to the final test concentration in external recording solution, with, or without 40 μM acetylcholine added to the external recording solution; test compounds were then transferred to the lonFlux HT population patch plate. Internal recording solution (110 mM TrisPO4, 28 mM TrisBase, 0.1 mM CaCl2, 2 mM MgCl2, 11 mM EGTA, 4 mM MgATP) was added to the internal recording solution inlet wells on the IonFlux HT patch plate previously loaded with cells and test compounds, and the plate loaded into the IonFlux HT instrument. A protocol was executed on the IonFlux HT to trap the cells, break into the cells, and establish the whole-cell recording configuration; cells were voltage-clamped at a holding potential of −60 mV for the duration of the experiment, all experiments were conducted at room temperature, and the IonFlux HT injection pressure was 8 psi for solution applications. Upon establishing the whole-cell configuration, external recording solution was perfused into the recording chambers for 120 seconds and then 40 μM acetylcholine was applied for 1 second and immediately washed off with external recording solution for 60 seconds. The 40 μM acetylcholine-evoked α7 current served as the current response to which subsequent test compound effects, in the presence, or in the absence of 40 μM acetylcholine would be quantified relative to. Next, test compounds were evaluated at multiple concentrations for their ability to induce, or modulate α7 current responses; three concentrations of test compound were evaluated in ascending dose fashion per recording.
(The patch-clamp technique gives a direct electrical read-out from membranes.)

Chain of human α7 nAChR (P36544 23-502): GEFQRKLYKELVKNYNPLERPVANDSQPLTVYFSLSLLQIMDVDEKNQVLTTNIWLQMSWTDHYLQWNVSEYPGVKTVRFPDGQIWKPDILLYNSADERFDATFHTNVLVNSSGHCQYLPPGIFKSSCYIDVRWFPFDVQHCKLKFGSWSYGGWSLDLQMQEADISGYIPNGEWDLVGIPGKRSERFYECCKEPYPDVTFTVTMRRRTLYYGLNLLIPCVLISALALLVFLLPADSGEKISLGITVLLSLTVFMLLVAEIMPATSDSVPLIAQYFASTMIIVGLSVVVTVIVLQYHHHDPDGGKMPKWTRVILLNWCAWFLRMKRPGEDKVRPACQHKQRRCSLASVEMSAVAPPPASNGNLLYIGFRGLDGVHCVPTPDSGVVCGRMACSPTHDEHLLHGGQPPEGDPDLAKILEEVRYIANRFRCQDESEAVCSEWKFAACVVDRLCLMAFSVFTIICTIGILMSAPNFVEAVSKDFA

Regarding `CC1(C)[C@H](c2ccc(S(N)(=O)=O)cn2)[C@H]1c1nc(C2CCCC2)no1` [Example E2, 6-[(1R,3R)-3-(3-Cyclopentyl-1,2,4-oxadiazol-5-yl)-2,2-dimethylcyclopropyl]pyridine-3-sulfonamide], the EC50 runs as follows: (read-out: α7 nAChR EC50) 3200 nM; (read-out: α7 nAChR Potency) 500 to 5000 nM. For `CC1(C)[C@@H](c2ccc(S(N)(=O)=O)cn2)[C@@H]1c1nc(-c2cncc(C(F)(F)F)c2)no1` [Example F2, 6-[(1S,3S)-2,2-Dimethyl-3-{3-[5-(trifluoromethyl)pyridin-3-yl]-1,2,4-oxadiazol-5-yl}cyclopropyl]pyridine-3-sulfonamide], the EC50 was 3300 nM (read-out: α7 nAChR EC50) and 500 to 5000 nM (read-out: α7 nAChR Potency). The like results for `CC1(C)[C@H](c2ccc(S(N)(=O)=O)nc2)[C@H]1c1ncc(-c2ccccc2)o1` [Example A15, 5-[(1R,3R)-2,2-Dimethyl-3-(5-phenyl-1,3-oxazol-2-yl)cyclopropyl]pyridine-2-sulfonamide] were, in that order, 1600 nM and 500 to 5000 nM.

On to `CC1(C)[C@@H](c2ccc(S(N)(=O)=O)nc2)[C@@H]1c1nc(-c2cncc(C(F)(F)F)c2)no1` [Example B4, 5-[(1S,3S)-2,2-Dimethyl-3-{3-[5-(trifluoromethyl)pyridin-3-yl]-1,2,4-oxadiazol-5-yl}cyclopropyl]pyridine-2-sulfonamide], for which the EC50 reads like this: (read-out: α7 nAChR EC50) 2500 nM; (read-out: α7 nAChR Potency) 500 to 5000 nM.

For `CC1(C)[C@@H](c2ccc(S(N)(=O)=O)nc2)[C@@H]1c1nc(-c2ccccc2)no1` [Example 3, 5-[(1S,3S)-2,2-Dimethyl-3-(3-phenyl-1,2,4-oxadiazol-5-yl)cyclopropyl]pyridine-2-sulfonamide], the EC50 by setting is: (read-out: α7 nAChR EC50) 380 nM; (read-out: α7 nAChR Potency) 100 to 500 nM.

For `CC1(C)[C@@H](c2ccc(S(N)(=O)=O)cn2)[C@@H]1c1nc(C2CC2)no1` [Example F8, 6-[(1S,3S)-3-(3-Cyclopropyl-1,2,4-oxadiazol-5-yl)-2,2-dimethylcyclopropyl]pyridine-3-sulfonamide], the EC50 is, setting by setting: (read-out: α7 nAChR EC50) 1400 nM; (read-out: α7 nAChR Potency) 500 to 5000 nM. Taken in the same sequence, the figures for `CC(C)c1noc([C@H]2[C@H](c3ccc(S(N)(=O)=O)cn3)C2(C)C)n1` [Example F14, 6-{(1S,3S)-2,2-Dimethyl-3-[3-(propan-2-yl)-1,2,4-oxadiazol-5-yl]cyclopropyl}pyridine-3-sulfonamide] were 1600 nM and 500 to 5000 nM. `CC(C)(C)c1noc([C@H]2[C@H](c3ccc(S(N)(=O)=O)cn3)C2(C)C)n1` [Example F9, 6-[(1S,3S)-3-(3-tert-Butyl-1,2,4-oxadiazol-5-yl)-2,2-dimethylcyclopropyl]pyridine-3-sulfonamide]: the EC50 (read-out: α7 nAChR Potency) fell in the range of 500 to 5000 nM.

Consider `CC1(C)[C@@H](c2ccc(S(N)(=O)=O)cn2)[C@@H]1c1nc(C2CCCCC2)no1` [Example 10, 6-[(1S,3S)-3-(3-Cyclohexyl-1,2,4-oxadiazol-5-yl)-2,2-dimethylcyclopropyl]pyridine-3-sulfonamide], for which the EC50 runs as follows: (read-out: α7 nAChR EC50) 480 nM; (read-out: α7 nAChR Potency) 100 to 500 nM.

Consider `CC1(C)[C@@H](c2ccc(S(N)(=O)=O)nc2)[C@@H]1c1nc(-c2cccc(C(F)(F)F)c2)no1` [Example B5, 5-[(1S,3S)-2,2-Dimethyl-3-{3-[3-(trifluoromethyl)phenyl]-1,2,4-oxadiazol-5-yl}cyclopropyl]pyridine-2-sulfonamide], for which the EC50 by setting is: (read-out: α7 nAChR EC50) 3000 nM; (read-out: α7 nAChR Potency) 500 to 5000 nM. In the case of `CC1(C)[C@H](c2ccc(S(N)(=O)=O)cn2)[C@H]1c1nc(-c2cccc(C(F)(F)F)c2)no1` [Example E6, 6-[(1R,3R)-2,2-Dimethyl-3-{3-[3-(trifluoromethyl)phenyl]-1,2,4-oxadiazol-5-yl}cyclopropyl]pyridine-3-sulfonamide], for the setting “read-out: α7 nAChR Potency”, the EC50 was 500 to 5000 nM. In the case of `CC1(C)[C@H](c2ccc(S(N)(=O)=O)nc2)[C@H]1c1ncc(C2CCCC2)o1` [Example A4, 5-[(1R,3R)-3-(5-Cyclopentyl-1,3-oxazol-2-yl)-2,2-dimethylcyclopropyl]pyridine-2-sulfonamide], the EC50 is 3200 nM (read-out: α7 nAChR EC50) and 500 to 5000 nM (read-out: α7 nAChR Potency).

As for `CC1(C)[C@@H](c2ccc(S(N)(=O)=O)nc2)[C@@H]1c1noc(C2CCCC2)n1` (racemic) [Example C2, 5-[trans-3-(5-Cyclopentyl-1,2,4-oxadiazol-3-yl)-2,2-dimethylcyclopropyl]pyridine-2-sulfonamide], the EC50 is 920 nM (read-out: α7 nAChR EC50) and 500 to 5000 nM (read-out: α7 nAChR Potency). On to `NS(=O)(=O)c1ccc([C@@H]2C[C@H]2c2nc(-c3cccc(F)c3)no2)cn1` (racemic) [Example C8, 5-{trans-2-[3-(3-Fluorophenyl)-1,2,4-oxadiazol-5-yl]cyclopropyl}pyridine-2-sulfonamide], for which the EC50 was 390 nM (read-out: α7 nAChR EC50) and 100 to 500 nM (read-out: α7 nAChR Potency). Regarding `CC1(C)[C@@H](c2ccc(S(N)(=O)=O)nc2)[C@@H]1c1nc2ccccc2o1` (relative stereo) [Example C7, 5-[trans-3-(1,3-Benzoxazol-2-yl)-2,2-dimethylcyclopropyl]pyridine-2-sulfonamide], the EC50 is, setting by setting: (read-out: α7 nAChR EC50) 1600 nM; (read-out: α7 nAChR Potency) 500 to 5000 nM. In the case of `CC(C)c1noc([C@H]2[C@H](c3ccc(S(N)(=O)=O)nc3)C2(C)C)n1` [Example B13, 5-{(1S,3S)-2,2-Dimethyl-3-[3-(propan-2-yl)-1,2,4-oxadiazol-5-yl]cyclopropyl}pyridine-2-sulfonamide], the EC50 (read-out: α7 nAChR Potency) lay within 500 to 5000 nM. Consider `CC1(C)[C@H](c2ccc(S(N)(=O)=O)nc2)[C@H]1c1nc(CC2CC2)no1` [Example A13, 5-{(1R,3R)-3-[3-(Cyclopropylmethyl)-1,2,4-oxadiazol-5-yl]-2,2-dimethylcyclopropyl}pyridine-2-sulfonamide], for which the EC50 (read-out: α7 nAChR Potency) is 500 to 5000 nM. With `Cc1nc(S(N)(=O)=O)ccc1[C@@H]1C[C@H]1c1nc(-c2ccccc2)no1` (relative stereo) [Example 5, 6-Methyl-5-[trans-2-(3-phenyl-1,2,4-oxadiazol-5-yl)cyclopropyl]pyridine-2-sulfonamide], the EC50 is 3400 nM (read-out: α7 nAChR EC50) and 500 to 5000 nM (read-out: α7 nAChR Potency). The like results for `CC1(C)[C@@H](c2ccc(S(N)(=O)=O)cn2)[C@@H]1c1nc(C2CC(F)(F)C2)no1` (racemic) [Example G5, 6-{trans-3-[3-(3,3-Difluorocyclobutyl)-1,2,4-oxadiazol-5-yl]-2,2-dimethylcyclopropyl}pyridine-3-sulfonamide] were, in that order, 3600 nM and 500 to 5000 nM.

Turning to `CC1(C)[C@@H](c2ccc(S(N)(=O)=O)nc2)[C@@H]1c1nc(CC2CC2)no1` [Example B10, 5-{(1S,3S)-3-[3-(Cyclopropylmethyl)-1,2,4-oxadiazol-5-yl]-2,2-dimethylcyclopropyl}pyridine-2-sulfonamide], the EC50 was 1600 nM (read-out: α7 nAChR EC50) and 500 to 5000 nM (read-out: α7 nAChR Potency). Taken in the same sequence, the figures for `NS(=O)(=O)c1ccc([C@@H]2C[C@H]2c2nc(-c3ccccc3)no2)nc1` (racemic) [Example G6, 6-[trans-2-(3-Phenyl-1,2,4-oxadiazol-5-yl)cyclopropyl]pyridine-3-sulfonamide] were 1300 nM and 500 to 5000 nM. In the case of `CC1(C)[C@@H](c2ccc(S(N)(=O)=O)nc2)[C@@H]1c1noc(C2CCCCC2)n1` (racemic) [Example C10, 5-[trans-3-(5-Cyclohexyl-1,2,4-oxadiazol-3-yl)-2,2-dimethylcyclopropyl]pyridine-2-sulfonamide], the EC50 is, setting by setting: (read-out: α7 nAChR EC50) 2100 nM; (read-out: α7 nAChR Potency) 500 to 5000 nM. Regarding `CC1(C)[C@H](c2nc(-c3ccccc3)no2)[C@H]1c1ncc(S(N)(=O)=O)s1` [Example D9, 2-[(1R,3R)-2,2-Dimethyl-3-(3-phenyl-1,2,4-oxadiazol-5-yl)cyclopropyl]-1,3-thiazole-5-sulfonamide], the EC50 (read-out: α7 nAChR EC50) stood at 1700 nM and the EC50 (read-out: α7 nAChR Potency) lay in the range of 500 to 5000 nM.
